Like-named read-outs stand apart in the source and are kept apart here.
Experiments:
[1] = system: crabgrass, large; experiment: Test A pre-/postemergence herbicide test; type: in vivo, Digitaria sanguinalis; details: for Crabgrass, Large plant response rating: Preemergence, visual rating on 0 to 100 scale (0 no effect, 100 complete control); for pest or weed control at 125 g/ha / pest or weed control at 500 g/ha: Digitaria sanguinalis, 240 h, read-out: Plant response rating, Crabgrass, Large
Procedure, shortened: (§1)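 Approximately 10 days after treatment in the greenhouse, plants were compared with untreated controls and given a 0–100 visual injury rating. Applications: preemergence directed soil spray; postemergence on 2–10 cm plants at the one- to two-leaf stage.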

[2] = system: ducksalad; experiment: Test C flooded paddy test; type: in vivo, Heteranthera limosa; details: Flood
Procedure, shortened: (§2)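 Visual ratings from 0, no effect, to 100, complete control, were made against untreated controls after 13–15 greenhouse days. Compounds had gone straight into paddy water 3 cm above the soil, kept at that depth, on 2-leaf-stage plants.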

[3] = system: velvetleaf; experiment: Test A pre-/postemergence herbicide test; type: in vivo, Abutilon theophrasti; details: for Velvetleaf plant response rating: Preemergence, visual rating on 0 to 100 scale (0 no effect, 100 complete control)
Procedure, shortened: as §1

[4] = system: morningglory; experiment: Test A pre-/postemergence herbicide test; type: in vivo, Ipomoea spp.; details: for Morningglory plant response rating: Preemergence, visual rating on 0 to 100 scale (0 no effect, 100 complete control)
Procedure, shortened: as §1

[5] = system: barnyardgrass; experiment: Test C flooded paddy test; type: in vivo, Echinochloa crus-galli; details: Flood
Procedure, shortened: as §2

[6] = Postemergence, 125 g ai/ha, 0 to 100 scale, 0 no effect, 100 complete control
[7] = Postemergence, 500 g ai/ha, 0 to 100 scale (0 no effect, 100 complete control)
[8] = preemergence, 500 g ai/ha, 0 to 100 scale
[9] = post-emergence, Postemergence, 125 g ai/ha, 0 to 100 scale, 0 no effect, 100 complete control
[10] = post-emergence, Postemergence, 500 g ai/ha, 0 to 100 scale (0 no effect, 100 complete control)
[11] = pre-emergence, preemergence, 500 g ai/ha, 0 to 100 scale
[12] = 62 g ai/ha, scale of 0 to 100 where 0 is no effect and 100 is complete control, 13 to 15 days
[13] = 125 g ai/ha, scale of 0 to 100 where 0 is no effect and 100 is complete control, 13 to 15 days
[14] = Abutilon theophrasti, post-emergence, 240 h, Postemergence, 500 g ai/ha, 0 to 100 scale (0 no effect, 100 complete control), read-out: Plant response rating, Velvetleaf
[15] = Abutilon theophrasti, pre-emergence, 240 h, preemergence, 500 g ai/ha, 0 to 100 scale, read-out: Plant response rating, Velvetleaf
[16] = Ipomoea, post-emergence, 240 h, Postemergence, 500 g ai/ha, 0 to 100 scale (0 no effect, 100 complete control), read-out: Plant response rating, Morningglory
[17] = Ipomoea, pre-emergence, 240 h, preemergence, 500 g ai/ha, 0 to 100 scale, read-out: Plant response rating, Morningglory
[18] = 31 g ai/ha, scale of 0 to 100 where 0 is no effect and 100 is complete control, 13 to 15 days

## O=C1NCC(c2ccc(F)c(C(F)(F)F)c2)C1C(=O)Nc1cccc(F)c1F (racemic) [Compound 77]
[1]; [6]
  Plant response rating, Crabgrass, Large: 80
[1]; [7]
  Plant response rating, Crabgrass, Large: 80
[1]; 125 g ai/ha
  Crabgrass, Large plant response rating: 90
[1]; [8]
  Plant response rating, Crabgrass, Large: 90
[2]; 250 g ai/ha, scale 0 to 100
  Plant response rating, Ducksalad: 95
[2]; 500 g ai/ha, scale 0 to 100
  Plant response rating, Ducksalad: 100
[2]; 1000 g ai/ha, scale 0 to 100
  Plant response rating, Ducksalad: 100
[2]; 2000 g ai/ha, scale 0 to 100
  Plant response rating, Ducksalad: 100
[3]; [6]
  Plant response rating, Velvetleaf: 20
[3]; [7]
  Plant response rating, Velvetleaf: 40
[3]; 125 g ai/ha
  Velvetleaf plant response rating: 0
[3]; [8]
  Plant response rating, Velvetleaf: 0
[4]; [6]
  Plant response rating, Morningglory: 0
[4]; [7]
  Plant response rating, Morningglory: 30
[4]; 125 g ai/ha
  Morningglory plant response rating: 20
[4]; [8]
  Plant response rating, Morningglory: 60
[5]; 250 g ai/ha, scale 0 to 100
  Plant response rating, Barnyardgrass: 20
[5]; 500 g ai/ha, scale 0 to 100
  Plant response rating, Barnyardgrass: 30
[5]; 1000 g ai/ha, scale 0 to 100
  Plant response rating, Barnyardgrass: 40
[5]; 2000 g ai/ha, scale 0 to 100
  Plant response rating, Barnyardgrass: 70

## O=C1NCCC1C(=O)N(c1ccc(F)c(F)c1)c1ccccc1F (centres unmarked) [Compound 5, N-(3,4-difluorophenyl)-N-(2-fluorophenyl)-2-oxo-3-pyrrolidinecarboxamide]
[1]; [9]
  pest or weed control at 125 g/ha: 70%
[1]; [10]
  pest or weed control at 500 g/ha: 80%
[1]; [11]
  pest or weed control at 500 g/ha: 90%
[1]; 125 g ai/ha
  Crabgrass, Large plant response rating: 80
[2]; [12]
  Plant response rating, Ducksalad: 30
[2]; [13]
  Plant response rating, Ducksalad: 70
[2]; 250 g ai/ha, scale 0 to 100
  Plant response rating, Ducksalad: 80
[3]; [14]
  pest or weed control at 500 g/ha: 0%
[3]; [15]
  pest or weed control at 500 g/ha: 0%
[3]; 125 g ai/ha
  Velvetleaf plant response rating: 0
[4]; [16]
  pest or weed control at 500 g/ha: 10%
[4]; [17]
  pest or weed control at 500 g/ha: 0%
[4]; 125 g ai/ha
  Morningglory plant response rating: 0
[5]; [12]
  Plant response rating, Barnyardgrass: 0
[5]; [13]
  Plant response rating, Barnyardgrass: 20
[5]; 250 g ai/ha, scale 0 to 100
  Plant response rating, Barnyardgrass: 55

## O=C1NCC(Br)(c2ccccc2)C1C(=O)Nc1ccccc1F (centres unmarked) [Compound 92, 4-bromo-N-(2-fluorophenyl)-2-oxo-4-phenyl-3-pyrrolidinecarboxamide]
[1]; [9]
  pest or weed control at 125 g/ha: 20%
[1]; [10]
  pest or weed control at 500 g/ha: 70%
[1]; [11]
  pest or weed control at 500 g/ha: 90%
[1]; 125 g ai/ha
  Crabgrass, Large plant response rating: 80
[2]; [18]
  Plant response rating, Ducksalad: 0
[2]; [12]
  Plant response rating, Ducksalad: 20
[2]; [13]
  Plant response rating, Ducksalad: 20
[2]; 250 g ai/ha, scale 0 to 100
  Plant response rating, Ducksalad: 70
[3]; Abutilon theophrasti, post-emergence, 240 h, Postemergence, 125 g ai/ha, 0 to 100 scale, 0 no effect, 100 complete control, read-out: Plant response rating, Velvetleaf
  pest or weed control at 125 g/ha: 0%
[3]; [14]
  pest or weed control at 500 g/ha: 0%
[3]; [15]
  pest or weed control at 500 g/ha: 0%
[3]; 125 g ai/ha
  Velvetleaf plant response rating: 0
[4]; Ipomoea, post-emergence, 240 h, Postemergence, 125 g ai/ha, 0 to 100 scale, 0 no effect, 100 complete control, read-out: Plant response rating, Morningglory
  pest or weed control at 125 g/ha: 0%
[4]; [16]
  pest or weed control at 500 g/ha: 0%
[4]; [17]
  pest or weed control at 500 g/ha: 0%
[4]; 125 g ai/ha
  Morningglory plant response rating: 0
[5]; [18]
  Plant response rating, Barnyardgrass: 10
[5]; [12]
  Plant response rating, Barnyardgrass: 10
[5]; [13]
  Plant response rating, Barnyardgrass: 10
[5]; 250 g ai/ha, scale 0 to 100
  Plant response rating, Barnyardgrass: 10

— patent US10294202B2, “Pyrrolidinones as herbicides” (FMC Corporation, priority 2013, dated 2019)
